In test [1] the test system is longitudinal muscle from rat proximal colon.
Test [2] concerns colonic transit. Also noted: species or system rats. The following applies: rat, in vivo, sc.
Test [3] relates to colonic motility. As to conditions: literature; cited from earlier work.
Test [4] deals with post-operative ileus. As to conditions: cited from earlier work.
For test [5], the system named is longitudinal muscle strips of proximal colon from BAC- or vehicle-treated rats. Description: Benzalkonium chloride (BAC) myenteric plexus ablation, organ bath experiments. Set-up: species or system rat. An excerpt:
This example examined benzalkonium chloride (BAC)-treatment. […] EFS caused frequency-dependent and TTX-sensitive contractions in vehicle-treated tissues but not BAC-treated tissues. However, carbachol contracted both vehicle- and BAC-treated tissues with the same degree. These previous studies indicate that chronic ablation of the myenteric plexus by serosal application of BAC essentially eliminates neuronally mediated responses without a concomitant alteration in muscle contractility. To investigate if the action of OFQ is mediated via intramural myenteric plexus, BAC (0.1%) was applied to the serosal surface of the proximal colon every 5 min for 30 min and then rinsed off with saline. Saline-treated group served as controls. Two weeks after BAC- or saline-treatment, the longitudinal muscle strips were used for the organ bath experiments.
The area under the curve was calculated using Planix 7 (Sokkia Corporation,Overland Park, Kans.) and expressed as a motility index. The area under the curve of basal contraction was evaluated over 10 min in each experiment. The area under the curve of antagonist-induced contractions and OFQ-induced contractions was also evaluated over 10 min. The motility index was compared between basal contractions and OFQ-induced contractions in each experiment.

The test system of test [6] is longitudinal muscle from the rat proximal colon.
Test [7] concerns IBS patients. The following applies: literature; cited from earlier work.
In test [8] the test system is longitudinal muscle strips from rat ileum.
Test [9] deals with longitudinal muscle strips from rat gastric body.
Test [10] has as its system longitudinal muscle strips from rat proximal colon.
[11] abbreviates: patients after abdominal / gastrointestinal surgery, literature trials.

Where two headings read alike, the source gives them in different places.

On to `CC(C)NCC(O)COc1cccc2ccccc12` (stereo not drawn) [propranolol], for which the “effect of antagonist on OFQ-induced contractions” value (shortened to “effect of antagonist”) in test [1] is “not affected”.
As for `N=C(N)NCCN1CCCCCCC1` [guanethidine], in test [1], the “effect of antagonist” value was “not affected”.
The same measure, in the same setting: next, `C[N+](C)(C)CCCCCC[N+](C)(C)C` [hexamethonium]: “did not affect”.
Turning to dynorphin A [reference compound], in test [2], the colonic transit result is listed as “delays colonic transit”.
As to `CC(C)C[C@@H]1NC(=O)[C@H](C)NC(=O)[C@H]([C@@H](C)O)NC(=O)[C@H](CCC(=O)O)NC(=O)[C@@H]2CCCN2C(=O)[C@H](C)NC(=O)[C@H](CCCCN)NC(=O)[C@@H]2CSSC[C@@H](C(=O)N[C@@H](CCC(N)=O)C(=O)N[C@@H](CCC(N)=O)C(=O)N[C@@H](Cc3cnc[nH]3)C(N)=O)NC(=O)[C@H](CCCNC(=N)N)NC(=O)[C@H](CCCNC(=N)N)NC(=O)[C@H](C)NC(=O)[C@H](CSSC[C@H](N)C(=O)N[C@@H](CC(N)=O)C(=O)N2)NC1=O` [apamin], in test [1], the “effect of antagonist” value is “preserved” and the “effect on spontaneous contractions in the proximal colon” value (from here on “effect on spontaneous contractions”) is “enhanced spontaneous contractions”.
As for `CCN(CC)CCNC(=O)c1cc(Cl)c(N)cc1OC` [metoclopramide], in test [3], the “effect on colonic motility” value is “little effect” and the “efficacy in constipated patients” value was “not very effective”.
Regarding “[p-chloro-D-Phe^6, LEU ^17 ]-VIP [VIP antagonist]”, in test [1], the “antagonism of the action of VIP” value was “significantly antagonized”, the “effect of antagonist” value is reported as “did not affect” and the “effect on spontaneous contractions” value is reported as “no significant effects”.
As to `CN1C[C@H](C(=O)N[C@]2(C)O[C@@]3(O)[C@@H]4CCCN4C(=O)[C@H](Cc4ccccc4)N3C2=O)C[C@@H]2c3cccc4[nH]cc(c34)C[C@H]21` [DHE, dihydroergotamine], the “duration of post-operative ileus, treated vs placebo/control patients” value (shortened to “duration … vs placebo/control patients”) in test [4] (setting [11]) is “no significant differences”.
On to `CCCCCCCCCCCCC[N+](C)(C)Cc1ccccc1` [BAC, benzalkonium chloride], for which, in [5] (BAC 0.1% on serosal surface of proximal colon, two weeks before), the “spontaneous basal muscle contraction in BAC-treated vs vehicle-treated tissues” value was “significantly higher”. Also, the “response to EFS of muscle strips from BAC-treated rats” value in test [5] (EFS 65 V, 0.5 msec, 10 Hz) is recorded as “failed to cause any responses”.
Take `CC[C@@H](CO)NC(=O)[C@@H]1C=C2c3cccc4c3c(cn4C)C[C@H]2N(C)C1` [methysergide]: the “effect of antagonist” value in test [1] is on record as “did not affect”.
Consider `C[N+](C)(C)CCOC(N)=O` [carbachol, reference compound], for which, in test [5] (carbachol 10^-6 M), the “contraction of control and BAC-treated tissues” value is “contracted both control and BAC-treated tissues with the same degree”. In test [6], the “contractions in the presence of TTX” value is given as “caused further contractions”.
With `COc1ccc2c(c1)c(CC(=O)O)c(C)n2C(=O)c1ccc(Cl)cc1` [indomethacin], the “effect of antagonist” value in [1] is on record as “did not affect”.
In the case of `COc1cc(N)c(Cl)cc1C(=O)NC1CCN(CCCOc2ccc(F)cc2)CC1OC` (stereo not drawn) [cisapride, Cisapride], the “duration … vs placebo/control patients” value in [4] (setting [11]) is recorded as “no difference”. In test [3], the “effect on colonic motility” value was “little effect” and the “efficacy in constipated patients” value is “not very effective”. Also, in test [7], the “stool frequency in IBS patients” value was “increase stool frequency” and the “whole gut transit in IBS patients” value is “accelerate whole gut transit”.
Consider `COC(=O)[C@@H](N)CCCNC(=N)N[N+](=O)[O-]` [L-NAME, NG-nitro-L-arginine methyl ester], for which, in test [1], the “effect of antagonist” value is reported as “preserved” and the “effect on spontaneous contractions” value is on record as “enhanced spontaneous contractions”.
On to `CN1[C@@H]2CC[C@H]1C[C@@H](OC(=O)C(CO)c1ccccc1)C2` (stereo partly drawn) [atropine, Atropine, reference compound], for which the “effect of antagonist” value in test [1] is “did not affect”. Moreover, the “EFS-evoked on- and off-contraction reduced to” value in test [8], in test [9] and in test [10] was 10-20% throughout.
Turning to “[D-Pro^4, D-Trp7.9]-substance P 4-11 [substance P antagonist]”, the “effect of antagonist” value in [1] is reported as “did not affect”.
With `C=CCN1CC[C@]23c4c5ccc(O)c4O[C@H]2C(=O)CC[C@@]3(O)[C@H]1C5` [naloxone], the “effect of antagonist” value in test [1] (10 min preincubation, then OFQ (10^-8 M), atropine 10^-6 M, hexamethonium 10^-4 M, naloxone 10^-5 M, indomethacin 10^-5 M, methysergide 3x10^-5 M, substance P antagonist 10^-5 M, VIP antagonist 5x10^-6 M, L-NAME 10^-4 M, apamin 10^-6 M, guanethidine, phentolamine, propranolol 10^-6 M) was “did not affect”.
`Cc1ccc(N(CC2=NCCN2)c2cccc(O)c2)cc1` [phentolamine]: the “effect of antagonist” value in test [1] is “not affected”.

B1: cholecystokinin (peptide, UniProt P06307 21-115, looked up)
Cholecystokinin: QPVPPADPAGSGLQRAEEAPRRQLRVSQRTDGESRAHLGALLARYIQQARKAPSGRMSIVKNLQNLDPSHRISDRDYMGWMDFGRRSAEEYEYPS
modifications: Cholecystokinin
Turning to B1, in [4] (human, in vivo), the “duration … vs placebo/control patients” value is reported as “no differences”.

The values above are taken from patent US5929035A, “Methods of treating intestinal disorders” (Regents of the University of Michigan, priority 1998, dated 1999).
